Assay results: patent EP0934065B1, “NOVEL CRYPTOPHYCIN DERIVATIVES AS ANTI-NEOPLASTIC AGENTS” (priority 1996, dated 1998)
Converted amounts (≈) assume the structure as drawn. Structures can show the parent of a compound that is named as a salt. Where two headings read alike, the source gives them in different places.

Legend:
[1] = test system: GC3 human colon carcinoma cells; test: cells; format: cell-based; settings: 72 hours incubation, MTT
Method: Selected wells of a 96 well plate were seeded with GC3 human colon carcinoma cells ([…] cells in 100µl assay medium/well) twenty four hours prior to test compound addition. Cell free assay medium was added to other select wells of the 96 well plate. The assay medium (RPMI-1640 was the medium used; however, any medium that will allow the cells to survive would be acceptable) was supplemented with 10% dialyzed fetal bovine serum and 25 mM HEPES buffer.
The test compound was stored in an amber bottle prior to testing. Fresh dimethylsulfoxide stock solution (200µg/ml) was prepared immediately prior to preparation of test sample dilutions in phosphate-buffered saline (PBS). A dilution of 1:20 dimethylsulfoxide solution in PBS was prepared such that the final concentration was 10 µg/ml. Serial 1:3 dilutions using PBS (.5ml previous sample of 1ml PBS) were prepared. Falcon 2054 tubes were used for the assay.
A 10ul sample of each dilution of test compound was added in triplicate to wells of GC3 plates. The plates were incubated for 72 hours at about 37°C. A 10µl sample of stock […] salt ("MTT" 5 mg/ml in PBS) was added to each well. The plates were incubated for about an hour at 37°. The plates were centrifuged, media was decanted from the wells and 100µl acid-isopropanol (0.04 N HCl in isopropanol) was added to each well. The plate was read within one hour using a test wavelength of 570nm (SpectraMax reader).

physchem [2] = test: physchem
Description: Table 4. Solubility of cryptophycin glycinate 12 in various parenteral vehicles.

physchem [3] = format: physicochemical; settings: for solubility: water
A-10 cells [4] = test: Effects on taxol-stabilized microtubules; format: cell-based, rat
Method: (§1) A-10 cells are grown to near-confluency on glass coverslips in BME/10% FBS. Compounds in PBS are added to the indicated final concentrations and cells are incubated for an additional 24 hours. For the staining of microtubules and intermediate filaments, the cells are fixed with cold methanol and incubated with PBS containing 10% calf serum to block nonspecific binding sites. Cells are then incubated at 37°C for 60 min. With either monoclonal anti-β-tubulin or with monoclonal anti-vimentin at dilutions recommended by the manufacturer. Bound primary antibodies are subsequently visualized by a 45 minute incubation with fluorescein-conjugated rabbit antimouse IgG. The coverslips are mounted on microscope slides and the fluorescence patterns are examined and photographed using a Zeiss Photomicroscope I11 equipped with epifluorescence optics for fluorescein. […] PBS containing 100nM TRITC-phalloidin is then added and the mixture is allowed to incubate for 45 min. At 37°C. The cells are washed rapidly with PBS before the coverslips are mounted and immediately photographed as described above.
After 24 hours, microtubule organization is examined by immunofluorescence as described above. […] Similarly, microtubules pretreated with taxol are observed with cryptophycin treatment.

[5] = test system: A-10 rat aortic smooth muscle cells; test: Immunofluorescence: effects on the cytoskeleton; format: cell-based; settings: A-10 cells, 2µM cytochalasin B, 24 hours
Method: as §1
After 24 hours, microtubules and vimentin intermediate filaments are visualized by indirect immunofluorescence and microfilaments are stained using TRITC-phalloidin. The morphological effects of each drug is examined. […]

A-10 cells [6] = test: Reversibility of microtubule depolymerization; format: cell-based, rat; settings: 100nM vinblastine 24 hr
Method: as §1
The cells are then washed and incubated in drug-free medium for periods of 1 hour or 24 hours. […] Cells are visualized for microtubule state after treatment with a cryptophycin compound of this invention at either 1 hour or 24 hours after removal of the cryptophycin compounds.

[7] = pH 8, room temperature, read-out: solubility value

Molecule: Cryptophycin 55 (L) -γ-glutamate hydrochloride salt [Compound 42]
- IC50 ([1]; Table 2 of Example 94): 15 nM

Molecule: COc1ccc(C[C@H]2NC(=O)/C=C/C[C@@H]([C@H](C)[C@@H](OC(=O)CN)[C@@H](Cl)c3ccccc3)OC(=O)[C@H](CC(C)C)OC(=O)C(C)(C)CNC2=O)cc1Cl [Compound 12]
- IC50 ([1]; Homo sapiens, Colon carcinoma cell): 0.1 nM
- solubility (physchem [2]; 0.05m acetate buffer, pH 4, aqueous buffer, Comparative solubilities, excipient 5: 0.05M Acetate buffer pH 4.0 100 %v/v): 30 µg/mL (≈ 39.3 µM)
- solubility (physchem [2]; emulphor el719 in acetate buffer, aqueous buffer, Comparative solubilities, excipient 4: Emulphor EL719 1 (w/v), volume adjusted 0.05M acetate buffer): 1500 µg/mL (≈ 1970 µM)
- solubility (physchem [2]; ethanol/acetate buffer, pH 4, organic solvent or mixture, Solubility in parenteral vehicle, vehicle 3: Ethanol 10 %v/v, 0.05M Acetate buffer pH 4.0 qs): 1290 µg/mL (≈ 1690 µM)
- solubility (physchem [2]; ethanol/propylene glycol/acetate buffer, pH 4, organic solvent or mixture, Solubility in parenteral vehicle, vehicle 2: Ethanol 10, Propylene Glycol 10 %v/v, 0.05 M Acetate buffer pH 4.0 qs): 1990 µg/mL (≈ 2610 µM)
- solubility (physchem [2]; ethanol/propylene glycol/acetate buffer, pH 4, organic solvent or mixture, Solubility in parenteral vehicle, vehicle 6: Ethanol 10, Propylene Glycol 25 %v/v, 0.05 M Acetate buffer pH 4.0 qs): 10300 µg/mL (≈ 13500 µM)
- solubility (physchem [2]; ethanol/propylene glycol/acetate buffer, pH 4, organic solvent or mixture, Solubility in parenteral vehicle, vehicle 7: Ethanol 10, Propylene Glycol 15 %v/v, 0.05 M Acetate buffer pH 4.0 qs): 4320 µg/mL (≈ 5660 µM)
- solubility (physchem [2]; ethanol/propylene glycol/citrate buffer, pH 4, organic solvent or mixture, Solubility in parenteral vehicle, vehicle 1: Ethanol 10, Propylene Glycol 10 %v/v, 0.05 M Citrate buffer pH 4.0 qs): 110 µg/mL (≈ 144 µM)
- solubility (physchem [2]; polysorbate 80/acetate buffer, pH 4, Solubility in parenteral vehicle, vehicle 5: Polysorbate 80 0.5 (w/v), 0.05 M Acetate buffer pH 4.0 qs): 2210 µg/mL (≈ 2900 µM)
- solubility (physchem [2]; polysorbate 80 in acetate buffer, aqueous buffer, Comparative solubilities, excipient 3: Polysorbate 80 1(w/v), volume adjusted 0.05M acetate buffer, BQL = Below quantitation limit, approximately 0.001 mg/ml): 1000 to 2000 µg/mL (≈ 1310 to 2620 µM)
- solubility (physchem [2]; propylene glycol/acetate buffer, pH 4, organic solvent or mixture, Solubility in parenteral vehicle, vehicle 4: Propylene Glycol 10 %v/v, 0.05 M Acetate buffer pH 4.0 qs): 1580 µg/mL (≈ 2070 µM)
- solubility (physchem [2]; propylene glycol/ethanol/acetate buffer, organic solvent or mixture): > 2000 µg/mL
- solubility (physchem [2]; propylene glycol/peg 3000/acetate buffer, organic solvent or mixture): > 2000 µg/mL
- solubility (physchem [3]; [7]): 30 µg/mL (≈ 39.3 µM)

Molecule: COc1ccc(C[C@H]2NC(=O)/C=C/C[C@@H]([C@H](C)[C@@H](O)[C@@H](Cl)c3ccccc3)OC(=O)[C@H](CC(C)C)OC(=O)C(C)(C)CNC2=O)cc1Cl [Compound 1, cryptophycin 55]
- Comparative solubilities (physchem [2]; excipient 1: Propylene Glycol 15, Ethanol 10 %v/v, volume adjusted 0.05M acetate buffer, BQL = Below quantitation limit, approximately 0.001 mg/ml): BQL
- aqueous solubility over the pH range studied (physchem [3]; aqueous pH 4-8, room temperature): declined as the pH bacame basic
- solubility (physchem [3]; pH 4, water, pH of 4, read-out: aqueous solubility value): ~50 µg/mL (≈ 70.9 µM)
- solubility (physchem [3]; [7]): 10 µg/mL (≈ 14.2 µM)

Molecule: Cryptophycin 55 (D)-aspartate hydrochloride salt [Compound 40]
- IC50 ([1]; Table 2 of Example 94): 2 nM

Molecule: Cryptophycin 55 glycidylglycinate hydrochloride salt [Compound 47]
- IC50 ([1]; Table 2 of Example 94): 2.5 nM

Molecule: Cryptophycin 55 (2'-di-t-butylphosphatyl)phenylacetate [Compound 5]
- IC50 ([1]; Table 2 of Example 94): 31 nM

Molecule: CC(=O)O[C@H]1C(=O)[C@@]2(C)[C@H]([C@H](OC(=O)c3ccccc3)[C@]3(O)C[C@H](OC(=O)[C@H](O)[C@@H](NC(=O)c4ccccc4)c4ccccc4)C(C)=C1C3(C)C)[C@]1(OC(C)=O)CO[C@@H]1C[C@@H]2O [Taxol, taxol]
- microtubule organization (A-10 cells [4]; 10µM taxol, compared with control cells): extensively bundled

Molecule: COc1ccc(CC2NC(=O)C=CCC(C(C)C(OC(=O)[C@@H](N)CN)C(Cl)c3ccccc3)OC(=O)C(CC(C)C)OC(=O)C(C)(C)CNC2=O)cc1Cl (stereo partly drawn) [Compound 44, Cryptophycin 55 (S)-2,3-diaminopropionate dihydrochloride salt]
- IC50 ([1]; Table 2 of Example 94): 28 nM

Molecule: Cryptophycin 55 Na-Ne-di-t-Boc-(L)-lysinate [Compound 21]
- IC50 ([1]; Table 2 of Example 94): 21 nM

Molecule: Cryptophycin 55 N-methylpyridinium acetate salt [Compound 8]
- IC50 [1]: 2.2 nM
- IC50 ([1]; Table 2 of Example 94): 116 nM

Molecule: Cryptophycin 55 N-t-Boc-glycinate [Compound 11]
- IC50 ([1]; Table 2 of Example 94): 6.8 nM

Molecule: COc1ccc(CC2NC(=O)C=CCC(C(C)C(OC(=O)C(C)N)C(Cl)c3ccccc3)OC(=O)C(CC(C)C)OC(=O)C(C)(C)CNC2=O)cc1Cl (stereo not shown) [Compound 18, Cryptophycin 55 (L)-alaninate hydrochloride salt]
- IC50 [1]: 2.6 nM

Molecule: COc1ccc(C[C@H]2NC(=O)/C=C/C[C@@H]([C@H](C)[C@@H](OC(=O)[C@@H](N)CCCCN)[C@@H](Cl)c3ccccc3)OC(=O)[C@H](CC(C)C)OC(=O)C(C)(C)CNC2=O)cc1Cl [Compound 22, Cryptophycin 55 (L)-lysinate di-hydrochloride salt]
- IC50 [1]: 7.2 nM

Molecule: Cryptophycin 55 3,6,9-tioxadecanoate [Compound 48]
- IC50 ([1]; Table 2 of Example 94): 10 nM

Molecule: COc1ccc(CC2NC(=O)C=CCC(C(C)C(OC(=O)C(N)CCCCN)C(Cl)c3ccccc3)OC(=O)C(CC(C)C)OC(=O)C(C)(C)CNC2=O)cc1Cl (stereo not shown) [Compound 34, Cryptophycin 55 (D)-lysinate di-hydrochloride salt]
- IC50 ([1]; Table 2 of Example 94): 6.5 nM

Molecule: C=C1[C@@H](C)[C@H]2[C@H](Cc3ccccc3)NC(=O)[C@]23OC(=O)/C=C/[C@H](O)CCC[C@@H](C)C/C=C/[C@H]3[C@@H]1O [Cytochalasin B, cytochalasin B]
- effect on microfilaments ([5]; TRITC-phalloidin): complete depolymerization of microfilaments
- effect on distribution of microtubules and intermediate filaments ([5]; indirect immunofluorescence): did not affect the distribution of either microtubules or intermediate filaments

Molecule: Cryptophycin 55 nicotinoate hydrochloride salt [Compound 7]
- IC50 [1]: 116 nM
- IC50 ([1]; Table 2 of Example 94): 3.7 nM

Molecule: Cryptophycin 55 N-t-Boc-3-(3-chloro-4-methoxyphenyl)-(D)-alaninate [Compound 9]
- IC50 ([1]; Table 2 of Example 94): 2.2 nM

Molecule: Cryptophycin 55 N-t-Boc-(D)-alaninate [Compound 19]
- IC50 ([1]; Table 2 of Example 94): 0.1 nM

Molecule: COc1ccc(CC2NC(=O)C=CCC(C(C)C(OC(=O)CCN)C(Cl)c3ccccc3)OC(=O)C(CC(C)C)OC(=O)C(C)(C)CNC2=O)cc1Cl (stereo not shown) [Compound 14, Cryptophycin 55 b-alaninate hydrochloride salt]
- IC50 [1]: 21 nM

Molecule: CC[C@]1(O)C[C@@H]2CN(CCc3c([nH]c4ccccc34)[C@@](C(=O)OC)(c3cc4c(cc3OC)N(C)[C@H]3[C@@](O)(C(=O)OC)[C@H](OC(C)=O)[C@]5(CC)C=CCN6CC[C@]43[C@@H]65)C2)C1 [Vinblastine, vinblastine]
- microtubule depolymerization, non-pretreated cells (A-10 cells [4]; 100nM vinblastine, 24 hours): complete depolymerization of microtubules
- microtubule depolymerization after pretreatment with taxol (A-10 cells [4]; 3 hours 10µM taxol, then 100nM vinblastine, 24 hours): pretreatment with taxol prevented microtubule depolymerization
- microtubule repolymerization after removal of drug (A-10 cells [6]; then drug-free medium 1 hour): significant levels of microtubules
- microtubule repolymerization after removal of drug (A-10 cells [6]; then drug-free medium 24 hours): complete morphological recovery

Molecule: Cryptophycin 55 (L)-α-glutamate hydrochloride salt [Compound 36]
- IC50 ([1]; Table 2 of Example 94): 2.8 nM

Molecule: COc1ccc(CC2NC(=O)C=CCC(C(C)C(OC(=O)C(N)CO)C(Cl)c3ccccc3)OC(=O)C(CC(C)C)OC(=O)C(C)(C)CNC2=O)cc1Cl (stereo not shown) [Compound 46, Cryptophycin 55 (L)-serinate hydrochloride salt]
- IC50 ([1]; Table 2 of Example 94): 50 nM

Molecule: Cryptophycin 55 (L)-aspartate hydrochloride salt [Compound 38]
- IC50 ([1]; Table 2 of Example 94): 1.6 nM
